{"source": "patent US12071469B2", "about": "“Peptide compounds for suppressing inflammation” (Duke University, priority 2011, dated 2024)", "key": {"[1]": {"test_system": "primary rat neuronal cortical culture exposed to NMDA", "experiment": "Neuroprotection from NMDA mediated cell death in primary neuronal culture (LDH release)", "type": "cell-based", "description": "Peptides of 5 amino acids in length were applied to one or more samples of cells in parallel at concentrations ranging from about 0 to about 50 μM, such as 0.3, 3, and 30 μM. The peptides AL-10-1 (SEQ ID NO:18) and VL-17-9 (SEQ ID NO:19), which are longer peptides (12 amino acids each) were used as negative and positive controls, respectively. A series of peptides were screened in primary rat neuronal cortical culture exposed to NMDA using the method described in Aono et al., Neuroscience (2003) 116:437 and Aono et al., Neurobiology of Disease (2002) 11:214, both of which are incorporated by reference in their entirety (see Table 2). Neuroprotection from NMDA mediated cell death in primary neuronal culture was expressed as percentage decrease in LDH, 24 hours after exposure to NMDA compared to vehicle treated cultures (Table 2). LDH release is indicative of neuronal death after NMDA exposure. The peptide VR-55 (SEQ ID NO:4) reduced NMDA mediated excitotoxic cell death by approximately 19% at a concentration of 1 μM. […] The positive control peptide VL-17-9 reduced LDH release by 31%.\nDose response of the neuroprotection from NMDA excitotoxicity in primary neuronal culture was determined for ApoE mimetic peptide VR-55 (SEQ ID NO: 4). […] “0” indicates less than 5% suppression; “+” indicates 5-10% suppression; “++” indicates 11-20% suppression; and “+++” indicates greater than 20% suppression. In addition to VL-17-9, several other candidates had greater than 20% suppression, including VR-55, VL-5-1, VL-5-2 and VR-52."}, "[2]": {"test_system": "mixed glial primary culture", "experiment": "Suppression of TNF-α release in mixed glial primary culture after exposure to LPS", "type": "cell-based, murine", "settings": "FIGS. 11A and 11B", "description": "In vitro methods have been developed using cultured cells for evaluating the ability of a compound, such as a peptide, to suppress glial activation. Laskowitz et al., (2001) Exp. Neurol., 167:74-85. Glial cell cultures were grown and maintained under standard conditions. Cultured glial cells may include primary murine mixed glial cell cultures, murine BV-2 microglial cells, and human C3 microglial cells. Adherent glial cells were washed with OptiMEM® medium (available from Invitrogen Corp.) to remove serum and covered with fresh OptiMEM® medium containing peptide.\nLarger peptides or proteins may need to be tested at higher concentrations to observe measurable suppression of glial activation. If using primary murine cells and BV-2 cells, cells are stimulated with 100 ng/ml E. coli LPS (available from Sigma-Aldrich Co.), and supernatant is collected six hours after LPS stimulation and assayed for nitrite (using a colorimetric Griess reagent system, available from Promega Corp.) and/or TNF-α (using a solid-phase ELISA kit, available from Invitrogen Corp.). If using human C3 cells, cells are stimulated with 200 μg/ml polyinosinic acid 5′ (available from Sigma-Aldrich Co.), and supernatant is collected 5 days after stimulation and assayed for TNF-α using a solid-phase ELISA kit (available from Invitrogen Corp.).\nThe protective activity against brain injury-downregulating CNS inflammatory response was determined for ApoE mimetic peptides, VR-55 (SEQ ID NO: 4), VL-5-1 (SEQ ID NO: 5) and VL-5-3 (SEQ ID NO: 10)."}, "[3]": {"test_system": "mice with blast injury", "experiment": "Morris water maze after blast injury (shock tube blast model)", "type": "in vivo, mouse", "description": "Another experimental procedure for measuring neurological deficits was developed using a Morris water maze. The procedure used a black aluminum pool containing a movable platform (7.5 cm diameter) and filled with 25-27° C. water opacified with powdered milk. Each training or testing session consisted of four trials per day with an interval of 20-30 minutes between trials. One day before testing, mice were trained using a visible platform (platform flagged and located in a different quadrant each trial to minimize quadrant habituation, no extra-maze visual cues) to habituate the mice to handling and swimming and to teach the mice the goal of the test-escaping the water by climbing on the platform. […] Latency to finding the platform and swimming speed were recorded using a computerized video tracking system (Ethovision 2.2.14; available from Noldus Information Technology, Leesburg VA). […]\nThe shock tube was mounted vertically on an extruded aluminum frame using three vibration-damping U-bolts. […] Peak incident overpressure, positive-phase duration, and peak incident impulse were recorded in the three end-tube PTs for each test (data not shown). […] Atmospheric conditions (temperature, barometric pressure, humidity) were recorded prior to each test. […]"}}, "note": "Entries after “also recorded” stand apart in the source; their conditions may differ.", "data": [{"substance": "Ac-VSRRR-NH2 [VR-55, Ac-VSRRR-NH2]", "values": [{"measurement": "dose response of percent suppression of LDH release after NMDA exposure", "setting": "[1]; FIG. 6", "value": "dose dependent"}, {"measurement": "percentage decrease in LDH, 24 hours after exposure to NMDA compared to vehicle treated cultures", "setting": "[1]; peptide 0.1 μM", "value": "−2.85", "unit": "%"}, {"measurement": "percentage decrease in LDH, 24 hours after exposure to NMDA compared to vehicle treated cultures", "setting": "[1]; peptide 0.3 μM", "value": 1.50, "unit": "%"}, {"measurement": "suppression of LDH release, cumulative data (class)", "setting": "[1]; peptide 1 μM, cumulative data", "value": "+++ (greater than 20% suppression)"}, {"measurement": "percentage decrease in LDH, 24 hours after exposure to NMDA compared to vehicle treated cultures", "setting": "[1]; peptide 3 μM", "value": 15.91, "unit": "%"}, {"measurement": "release of inflammatory cytokine TNF-α", "setting": "[2]", "value": "inhibition of microglial TNF-α secretion; also recorded: suppress the release of inflammatory cytokine TNF-α"}, {"measurement": "neurocognitive deficit after blast injury (Morris water maze)", "setting": "[3]; FIG. 8, groups of 15", "value": "reduces neurocognitive deficit after blast injury"}, {"measurement": "time in the correct quadrant (probe trial)", "setting": "[3]; blast injury, vehicle 17.8±1.9 seconds, p=0.24", "value": "21.8 ± 2.7", "unit": "s"}]}]}
